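GI50 = concentration required for 50% inhibition of growth. The concentration for full growth arrest is given as TGI.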
Assays:
Assay in all cases: NCI-60 cell line screen, 384-well format
[1] = tested on: 786-0 renal
[2] = tested on: A549 NSCLC
[3] = tested on: BT-549 breast
[4] = tested on: CAKI-1 renal
[5] = tested on: CCRF-CEM leukemia
[6] = tested on: COLO 205 colon
[7] = tested on: EKVX NSCLC
[8] = tested on: HCC-2998 colon
[9] = tested on: HCT-116 colon
[10] = tested on: HCT-15 colon
[11] = tested on: HL-60(TB) leukemia
[12] = tested on: HOP-62 NSCLC
[13] = tested on: HOP-92 NSCLC
[14] = tested on: HT29 colon
[15] = tested on: IGROV1 ovarian
[16] = tested on: K-562 leukemia
[17] = tested on: KM12 colon
[18] = tested on: LOX IMVI melanoma
[19] = tested on: M14 melanoma
[20] = tested on: MALME-3M melanoma
[21] = tested on: MCF7 breast
[22] = tested on: MDA-MB-435 melanoma
[23] = tested on: NCI-H226 lung
[24] = tested on: NCI-H322M lung
[25] = tested on: NCI-H460 NSCLC
[26] = tested on: NCI-H522 lung
[27] = tested on: NCI/ADR-RES ovarian
[28] = tested on: OVCAR-3 ovarian
[29] = tested on: OVCAR-8 ovarian
[30] = tested on: PC-3 prostate
[31] = tested on: RPMI-8226 leukemia
[32] = tested on: RXF 393 renal
[33] = tested on: SF-295 CNS
[34] = tested on: SF-539 CNS
[35] = tested on: SK-MEL-2 melanoma
[36] = tested on: SK-MEL-28 melanoma
[37] = tested on: SK-OV-3 ovarian
[38] = tested on: SN12C renal
[39] = tested on: SNB-75 CNS
[40] = tested on: SR leukemia
[41] = tested on: SW-620 colon
[42] = tested on: T-47D breast
[43] = tested on: TK-10 renal
[44] = tested on: U251 glioblastoma
[45] = tested on: UACC-257 melanoma
[46] = tested on: UACC-62 melanoma
[47] = tested on: UO-31 renal

What does the source list for `C[C@H](NC(=O)CCC(F)(F)F)C(=O)N[C@@H]1C(=O)N(CCO)c2ncccc2-c2ccccc21`?
GI50 [1]: > 100 µM; TGI [1]: > 100 µM; GI50 [2]: > 100 µM; TGI [2]: > 100 µM; GI50 [3]: > 100 µM; TGI [3]: > 100 µM; GI50 [4]: > 100 µM; TGI [4]: > 100 µM; GI50 [5]: 22.9 µM; TGI [5]: > 56.2 µM; GI50 [6]: > 100 µM; TGI [6]: > 100 µM; GI50 [7]: > 100 µM; TGI [7]: > 100 µM; GI50 [8]: > 100 µM; TGI [8]: > 100 µM; GI50 [9]: > 100 µM; TGI [9]: > 100 µM; GI50 [10]: > 100 µM; TGI [10]: > 100 µM; GI50 [11]: 54.5 µM; TGI [11]: > 100 µM; GI50 [12]: > 100 µM; TGI [12]: > 100 µM; GI50 [13]: > 100 µM; TGI [13]: > 100 µM; GI50 [14]: > 100 µM; TGI [14]: > 100 µM; GI50 [15]: > 100 µM; TGI [15]: > 100 µM; GI50 [16]: 41.6 µM; TGI [16]: > 91.3 µM; GI50 [17]: > 100 µM; TGI [17]: > 100 µM; GI50 [18]: 43.3 µM; TGI [18]: > 100 µM; GI50 [19]: > 100 µM; TGI [19]: > 100 µM; GI50 [20]: > 100 µM; TGI [20]: > 100 µM; GI50 [21]: > 100 µM; TGI [21]: > 100 µM; GI50 [22]: > 100 µM; TGI [22]: > 100 µM; GI50 [23]: > 100 µM; TGI [23]: > 100 µM; GI50 [24]: > 100 µM; TGI [24]: > 100 µM; GI50 [25]: > 100 µM; TGI [25]: > 100 µM; GI50 [26]: > 100 µM; TGI [26]: > 100 µM; GI50 [27]: > 100 µM; TGI [27]: > 100 µM; GI50 [28]: > 100 µM; TGI [28]: > 100 µM; GI50 [29]: > 100 µM; TGI [29]: > 100 µM; GI50 [30]: > 100 µM; TGI [30]: > 100 µM; GI50 [31]: 49.8 µM; TGI [31]: > 100 µM; GI50 [32]: > 100 µM; TGI [32]: > 100 µM; GI50 [33]: > 100 µM; TGI [33]: > 100 µM; GI50 [34]: > 100 µM; TGI [34]: > 100 µM; GI50 [35]: > 100 µM; TGI [35]: > 100 µM; GI50 [36]: > 100 µM; TGI [36]: > 100 µM; GI50 [37]: > 100 µM; TGI [37]: > 100 µM; GI50 [38]: > 100 µM; TGI [38]: > 100 µM; GI50 [39]: > 100 µM; TGI [39]: > 100 µM; GI50 [40]: 64 µM; TGI [40]: > 100 µM; GI50 [41]: 87.1 µM; TGI [41]: > 100 µM; GI50 [42]: > 100 µM; TGI [42]: > 100 µM; GI50 [43]: > 100 µM; TGI [43]: > 100 µM; GI50 [44]: > 100 µM; TGI [44]: > 100 µM; GI50 [45]: > 100 µM; TGI [45]: > 100 µM; GI50 [46]: > 100 µM; TGI [46]: > 100 µM; GI50 [47]: > 100 µM; TGI [47]: > 100 µM
